The logP is a log measure of how a compound divides between an organic and an aqueous phase. A lower logP goes with lower lipophilicity.

SMILES strings stand for the structures.

The values that follow come from the OPERA property sets (Mansouri et al. 2018).

The compound `CC1=NS(=O)(=O)c2ccccc2N1` had a logP of 0.29.

`CCCSP(=O)(OCC)Oc1ccc(Br)cc1Cl` (centres undefined): the logP amounted to 4.68.

`CCCCCCCNC(=O)c1ccccc1` had a logP of 3.94.

The compound `CNC(=O)Oc1ccccc1Br` showed a logP of 1.77.

`O=S1(=O)OCC2C(CO1)C1(Cl)C(Cl)=C(Cl)C2(Cl)C1(Cl)Cl` (centres undefined) came in with a logP of 3.66.

Turning to `CCOP(=S)(OCC)SCSc1ccc(Cl)cc1`, the log partition coefficient (logP) amounted to 5.33.

With `O=C(O)c1ccc(Cl)cc1[N+](=O)[O-]`, the log partition coefficient (logP) came out at 2.08.

`ClCC#CCCl` registered a lipophilicity (logP) of 2.01.

`OCc1ccc2ccccc2c1` returned a logP of 2.21.

As to `CN(C)C=C[N+](=O)[O-]`, the logP is -0.8.

`CCN(CC)CCSC(=NO)c1nc(-c2cccc3ccccc23)no1` had a logP of 3.87.

Consider `CS(=O)(=O)c1cccc(-c2nc(N)nc(N)n2)c1`, for which the logP is 0.29.

`C=CCC1(CC(=C)Br)C(=O)NC(=O)N(C)C1=O` (centres undefined) had a logP of 1.78.

In the case of `O=NN1CCNCC1`, the logP was 0.18.

Regarding `COc1ccccc1C=C(C(C)=O)C(C)=O`, the logP is 1.73.

Consider `CCCCC1(c2ccncc2)CCC(=O)NC1=O` (centres undefined), for which the logP is 1.68.

With `CC(C)(Oc1ccc(Cl)cc1)C(=O)O`, the logP is 2.57.

The compound `CCCBr` showed a logP of 2.1.

In the case of `CC(=O)C(=Cc1ccc(C)cc1)C(C)=O`, the logP was found to be 2.14.

Compound `O=S1(=O)C=Cc2ccccc21` displayed a logP of 0.88.

For the compound `Nc1ccc(CO)cc1`, the logP is -0.22.

In the case of `CCSC(=O)N(CC(C)C)CC(C)C`, the logP was 4.15.

Take `CCC(C)NP(=O)(OC)Oc1cc(Cl)c(Cl)cc1Cl` (centres undefined): the logP stood at 3.99.

With `CCN1CC(C(O)C(CC2CCCCC2)NC(=O)C(Cc2cnc[nH]2)NC(=O)C(CC(=O)N(C)CCO)Cc2ccccc2)OC1=O` (centres undefined), the logP is 1.94.

In the case of `ClCc1cccc(CCl)c1`, the logP was 2.72.

Regarding `Cc1ccccc1C(=O)O`, the logP came to 2.46.

`CC#N` yielded a logP of -0.34.

Consider `Clc1ccc(Cl)cc1`, for which the logP worked out at 3.44.

For the compound `CCOP(=O)(OCC)Oc1ccc(SC)cc1Cl`, the logP was 3.05.

Turning to `Nc1ccc(C(=O)O)c(F)c1`, the logP is 1.29.

Turning to `C=C(C)C(=O)OCCO`, the logP came to 0.47.

In turn, `CC(C)N1CCN=C1CN1CCCCSc2ccc(Cl)cc21` displayed a logP of 5.15.

On to `CC(=O)C1CCC2C3CCC4=CC(=O)CCC4(C)C3C(O)CC12C` (centres undefined), for which the lipophilicity (logP) was determined as 2.36.

With `CCCCCCCC(=O)OCC(=O)C1(O)CCC2C3CCC4=CC(=O)CCC4(C)C3C(O)CC21C` (centres undefined), the log partition coefficient (logP) is 5.49.

The compound `CC(=O)Nc1cccc(O)c1` showed a logP of 0.73.

Turning to `Cc1ccc2ccccc2c1`, the logP is 3.86.

Compound `COc1c(C)cccc1C` came in with a logP of 3.02.

On to `NC(=O)c1cccc(O)c1`, for which the logP amounted to 0.39.

The compound `CC(CO)NCc1ccccc1` (centres undefined) gave a logP of 1.28.

`CCCOC(=O)c1cc(O)c(O)c(O)c1` displayed a logP of 1.8.

Turning to `O=C1CC(c2ccc(C(F)(F)F)cc2)Cc2c1c(=O)c1cc(Cl)ccc1n2O` (centres undefined), the logP amounted to 3.46.

The compound `CON(C)C(=O)Nc1ccc(C(=O)c2ccccc2)cc1` showed a logP of 2.86.

In turn, `C1COCCOCCOCCO1` gave a logP of -0.04.

`CNC(=O)Oc1ccc(I)cc1` came in with a logP of 2.46.

The compound `Cc1cc2ccccc2n1C` yielded a logP of 2.82.

For `CC(C)(C)c1ccc([N+](=O)[O-])cc1`, the logP came out at 3.89.

In turn, `O=[N+]([O-])c1cccc(C(F)(F)F)c1` had a logP of 2.62.

`Cc1cc([N+](=O)[O-])cc2c1NC(=O)CN=C2c1ccccc1` displayed a logP of 2.44.

The compound `Nc1ccc(C(=O)Oc2cccc(Cl)c2)c(O)c1` returned a logP of 3.9.

In the case of `CCCC(N)=O`, the logP is -0.21.

Regarding `N#C/C=C/C#N`, the logP is -0.25.

As for `Cn1c(N)nc2ccccc21`, the log partition coefficient (logP) amounted to 0.95.

`CC(=O)Oc1ccccc1` returned a logP of 1.49.

`CC(=O)c1ccc(S(I)=C(N(C)C)N(C)C)cc1` (centres undefined) showed a logP of -0.85.
